Test results reported in PMC4112042, “Phase 1 dose-escalation study of the PARP inhibitor CEP-9722 as monotherapy or in combination with temozolomide in patients with solid tumors” (Cancer Chemotherapy and Pharmacology, 2014).

Legend:
[1] = test system: chemoresistant tumor cells; parameters: method as in PMID 17699724; conditions: in vitro and in xenograft models; cited from earlier work
[2] = Plasma pharmacokinetics of CEP-8983 after oral CEP-9722; format: in vivo, human; parameters: AUC0–∞, mean ± SD / AUC0–t, mean ± SD / AUCτ, mean ± SD: concentration or dose not given beside the values
Experimental: Pharmacokinetic serum samples were collected on day 1 of cycle 1 pre-dose and 0.5, 1, 2, 3, 4, 6, 8, 10, and 24 h post-dose; and on day 5 of cycle 1 and cycle 2 pre-dose, and 0.5, 1, 2, 3, 4, 6, 8, 10, 24, and 48 h post-dose. Urine samples were obtained on day 1 of cycle 1 during 4 intervals in the 24 h following study drug administration. Pharmacokinetic parameters (area under the plasma drug concentration–time curve from time 0 to infinity [AUC0–∞], AUC from time 0 to the time of the last measurable drug concentration [AUC0–t], AUC for 1 dosing interval [AUCτ] following multiple doses, maximum observed plasma concentration [C max], and time to maximum observed plasma concentration [T max]) were summarized at each visit (day 1 of cycle 1 and day 5 of cycles 1 and 2) using descriptive statistics.

[3] = nonacidic environments; cited from earlier work
human bone marrow cells = test system: human bone marrow cells; parameters: method as in PMID 17699724; conditions: CFU-GM colony-forming assay; cited from earlier work
PARP-1 = PARP-1 enzyme; cited from earlier work
PARP-2 = PARP-2 enzyme; cited from earlier work
[4] = in vivo; cited from earlier work
[5] = day 5 of cycle 1, nonsmoker without medication affecting gastric pH, n = 13
[6] = day 5 of cycle 1, smoker and/or with medication affecting gastric pH, n = 11

mean AUC0–t ([2]; day 1 of cycle 1, nonsmokers not receiving gastric pH-modifying medications): 4,960.6 ng h/mL
mean AUC0–t ([2]; day 1 of cycle 1, smokers and/or patients receiving gastric pH-modifying medications): 2,747.3 ng h/mL
AUC0–t, mean ± SD [2, 5]: 3,138.0 ± 2,160.74 ng h/mL
AUC0–∞, mean ± SD [2, 5]: 4,111.0 ± 4,126.79 ng h/mL
AUCτ, mean ± SD [2, 5]: 3,851.1 ± 3,578.78 ng h/mL
C max, mean ± SD [2, 5]: 607.5 ± 319.87 ng/mL
CL/F, mean ± SD [2, 5]: 20.4 ± 25.80 L/h
Percentage extrapolation, mean ± SD [2, 5]: 3.7 ± 3.82%
V/F, mean ± SD [2, 5]: 58.1 ± 60.23 L
t max, mean ± SD [2, 5]: 36 ± 39.6 min
λ z, mean ± SD [2, 5]: 0.1 ± 0.13 h⁻¹
AUC0–t, mean ± SD [2, 6]: 1,339.3 ± 2,127.07 ng h/mL
AUC0–∞, mean ± SD [2, 6]: 2,838.9 ± 5,740.57 ng h/mL
AUCτ, mean ± SD [2, 6]: 2,304.7 ± 4,161.29 ng h/mL
C max, mean ± SD [2, 6]: 352.5 ± 380.57 ng/mL
CL/F, mean ± SD [2, 6]: 67.1 ± 62.14 L/h
Percentage extrapolation, mean ± SD [2, 6]: 5.5 ± 8.29%
V/F, mean ± SD [2, 6]: 102.3 ± 100.76 L
t 1/2, mean ± SD [2, 6]: 42 ± 46.2 min
t max, mean ± SD [2, 6]: 36 ± 39.6 min
λ z, mean ± SD [2, 6]: 0.2 ± 0.21 h⁻¹
mean AUC0–t ([2]; day 5 of cycle 2, nonsmokers not receiving gastric pH-modifying medications): 2,574.4 ng h/mL
mean AUC0–t ([2]; day 5 of cycle 2, smokers and/or patients receiving gastric pH-modifying medications): 1,457.9 ng h/mL
Compound: COc1cccc2[nH]c3c4c(c5c(c3c12)C(=O)NC5=O)CCC4 [CEP-8983]
sensitivity of chemoresistant tumor cells to temozolomide [1]: increased the sensitivity
solubility [3]: poorly soluble
myelotoxicity of temozolomide (human bone marrow cells): only modest increases
IC50 (PARP-1): 20 nM
IC50 (PARP-2): 6 nM
oral bioavailability [4]: low oral bioavailability
